Patent publication US20260167641A1, “CRYSTAL FORM OF IMIDAZOPYRAZINE DERIVATIVE, PREPARATION METHOD THEREFOR AND USE THEREOF” (TRANSTHERA SCIENCES (NANJING), INC., priority 2022, published 2026)
In brackets after ≈: the same amount, converted by molar mass.

Tests used:
[1] = Stability evaluation under influencing factors; type: physicochemical
Experimental: Appropriate amounts of crystal forms I, II. III, and the compound of formula (I) were taken and exposed to conditions of 60° C., RH (relative humidity) 92.5%, RH (relative humidity) 75%, and light, respectively. The samples were collected on day 30, and the purity of the samples and changes in XRPD were examined according to the 2020 edition of the Chinese Pharmacopoeia.

[2] = Pharmacokinetic evaluation test in rats; type: in vivo, SD rats; details: p.o. 100 mg/kg
Experimental: • Animals: male SD rats • Animal administration and sample collection: Crystal forms I, II, and III were each dissolved in a mixture of 20% PEG400+80% (20% Captisol in 0.5% MC) to prepare administration formulation suspensions. The administration formulations were intragastrically administered to the SD rats at a dose of 100 mg/kg. Blood samples were collected at time points of 15 min, 30 min, 1 h, 2 h, 4 h, 6 h, 8 h, 24 h, 48 h, 72 h, and […] after administration.
One day before administration, the animals underwent jugular vein catheterization. After administration, about 300 μL of blood samples were collected via the jugular vein and then placed into anticoagulation tubes containing EDTA-K2. The blood samples were centrifuged at 4° C. and 8000 rpm for 10 min to yield plasma samples, which were prepared within 30 min after blood sample collection. The plasma samples were stored in a refrigerator at −80° C. before tests.
The samples to be tested were taken out from the refrigerator at −80° C., naturally thawed at room temperature, and then vortexed for 5 min. 20 μL of each of the 20-fold diluted plasma samples was precisely pipetted into a 1.5 mL centrifuge tube, and 300 μL of an internal standard working solution at a concentration of 10 ng/mL was added. The mixture was uniformly mixed, vortexed for 5 min, and then centrifuged at 12000 rpm for 5 mun.
50 μL of the supernatant was precisely pipetted into a 96-well plate to which water was added at 150 μL/well in advance, uniformly mixed by vortexing for 5 min, and analyzed by LC-MS/MS.
The sample to be tested was taken out from the refrigerator at −80° C., naturally thawed at room temperature, and then vortexed for 5 min. 2 μL of the plasma sample was precisely pipetted and then added, together with 28 μL of blank plasma, to a 1.5 mL centrifuge tube, and 450 μL of an internal standard working solution (a solution of tolbutamide in acetonitrile) at a concentration of 100 ng/mL was added. The mixture was uniformly mixed, vortexed for 5 min, and then centrifuged at 12000 rpm for 5 min. 50 μL of the supernatant was precisely pipetted into a 96-well plate to which water was added at 150 μL/well in advance, uniformly mixed by vortexing for 5 min, and analyzed by LC-MS/MS.
The test compound concentrations were output by Analyst 1.7.1 of AB Sciex. Parameters such as mean, standard deviation, and coefficient of variation were calculated by Microsoft Excel. PK parameters were calculated by Pharsight Phoenix 8.2 software NCA (Tmax was in median).

[3] = Solubility test in pH 4.5 acetate buffer solution; type: physicochemical
Experimental: Appropriate amounts of crystal forms I, II, III, and the compound of formula (I) were weighed and placed into 15 mL centrifuge tubes separately. A pH 4.5 acetate buffer was added to each tube to prepare saturated solutions. The tubes were sealed and placed in a water bath thermostatic oscillator to shake at 37° C. and a rotation speed of 200 rpm for 24 h. After centrifugation, the supernatants were collected and diluted to the corresponding multiples. The concentrations were measured. The detection was conducted according to the 2020 edition of the Chinese Pharmacopoeia.

Hygroscopicity test = type: physicochemical; details: 25° C.±1° C.
Experimental: The experimental procedure was conducted in accordance with the guidelines for the hygroscopicity test of drugs in Chinese Pharmacopeia (2020 Edition). • 1. A dry glass weighing bottle with a stopper (outer diameter: 50 mm, height: 15 mm) was taken and placed in a thermostatic drier at 25° C.±1° C. (with a saturated ammonium chloride solution at the bottom) on the day before the test. After 24 h. the bottle was taken out, and its weight (m1) was precisely weighed. • 2. […] The total weight (m2) was precisely weighed. • 3. The weighing bottle was left open, and both the bottle and its bottle cap were placed under the constant temperature and humidity conditions described above for 24 h. • 4. The bottle was well sealed with its bottle cap, and the total weight (m3) was precisely weighed.
[formula] • 5. Hygroscopicity characteristics and hygroscopic weight gains are defined as follows. • deliquescent: sufficient water is absorbed to form a liquid; • extremely hygroscopic: the hygroscopic weight gain is not less than 15%; • hygroscopic: the hygroscopic weight gain is less than 15% but not less than 2%; • slightly hygroscopic: the hygroscopic weight gain is less than 2% but not less than 0.2%; • non-hygroscopic or almost non-hygroscopic: the hygroscopic weight gain is less than 0.2%.

[4] = male SD rats, mean, n = 3, 100 mg/kg

Question: For Nc1nccn2c(C34CCC(NC(=O)CN5CCOCC5)(CC3)C4)nc(-c3ccc(C(=O)Nc4cc(C(F)(F)F)ccn4)cc3)c12 (single isomer, unassigned) [Crystal form II, 4-(8-amino-3-(4-(2-morpholinoacetamido)bicyclo[2.2.1]heptan-1-yl)imidazo[1,5-a]pyrazin-1-yl)-N-(4-(trifluoromethyl)pyridin-2-yl)benzamide], which Purity % ([1]; 0 day) is on record?
Answer: 99.3%

Question: What about the “Crystal form identification (XRPD)” value ([1]; 60° C., 30 days) of the same molecule?
Answer: Consistent with day 0

Question: What about the Purity % ([1]; 60° C., 30 days) of the same molecule?
Answer: 99.3%

Question: And the “Crystal form identification (XRPD)” value ([1]; Light exposure, 30 days)?
Answer: Consistent with day 0

Question: And the Purity % ([1]; Light exposure, 30 days)?
Answer: 98.8%

Question: What about the “Crystal form identification (XRPD)” value ([1]; RH 75%, 30 days) of the same molecule?
Answer: Consistent with day 0

Question: And the Purity % ([1]; RH 75%, 30 days)?
Answer: 99.3%

Question: What about the “Crystal form identification (XRPD)” value ([1]; RH 92.5%, 30 days) of the same molecule?
Answer: Consistent with day 0

Question: And the Purity % ([1]; RH 92.5%, 30 days)?
Answer: 99.3%

Question: What about the “Change of crystal form (XRPD pattern)” value ([1]; all influencing factor conditions, 30 days) of the same molecule?
Answer: no changes in the crystal forms occurred

Question: What about the “Stability compared to the amorphous form” value ([1]; influencing factors, 30 days) of the same molecule?
Answer: higher stability

Question: What about the Purity decrease ([1]; light exposure, 30 days vs day 0) of the same molecule?
Answer: 0.5%

Question: And the Pharmacokinetic properties ([2]; SD rats)?
Answer: very good pharmacokinetic properties

Question: What about the “AUCinf—obs” value [2, 4] of the same molecule?
Answer: 2545.383 µg·h/mL

Question: What about the AUClast [2, 4] of the same molecule?
Answer: 2515.536 µg·h/mL

Question: What about the Cmax ([2]; male, SD, rat, plasma, po, 100 mg/kg, male SD rats, mean, n = 3, read-out: Cmax) of the same molecule?
Answer: 145 µg/mL

Question: What about the half-life ([2]; male, SD, rat, plasma, po, 100 mg/kg, male SD rats, mean, n = 3, read-out: tz1/2 (terminal half-life) (converted)) of the same molecule?
Answer: 7.74 h

Question: And the Tmax ([2]; male, SD, rat, plasma, po, 100 mg/kg, male SD rats, n = 3, Tmax in median, read-out: Tmax)?
Answer: 2 h

Question: And the “Solubility compared to the amorphous form” value [3]?
Answer: higher solubility

Question: And the Solubility ([3]; saturated solution, 37° C., 200 rpm, 24 h)?
Answer: 375 µg/mL (≈ 591 µM)

Question: And the Hygroscopicity characteristic (Hygroscopicity test; 24 h)?
Answer: slightly hygroscopic (the hygroscopic weight gain is less than 2% but not less than 0.2%)

Question: And the “24 h percentage weight gain” value (Hygroscopicity test; saturated ammonium chloride solution)?
Answer: 0.34%
